pIC50: −log10 of the molar value. Where a name gives a salt, the structure may show the parent alone. Activity calls are given as the source filed them. The rule behind the calls is not given here.
How the values were obtained:
[1] = system: A549; assay: Cytotoxicity against human A549 cells at 20 uM by MTT assay; assay type: functional, cell-based
[2] = system: Mycobacterium tuberculosis; assay: Antitubercular activity against Mycobacterium tuberculosis H37Ra assessed as reduction in microbial growth; assay type: functional
[3] = system: Mycobacterium marinum; assay: Antibacterial activity against Mycobacterium marinum assessed as reduction in microbial growth at 100 ug/ml; assay type: functional, organism-based; settings: dose 100.0 µg/ml
[4] = system: Staphylococcus aureus; assay: Antibacterial activity against Staphylococcus aureus assessed as reduction in microbial growth at 25 ug/ml incubated for 24 hrs; assay type: functional, organism-based; settings: dose 25.0 µg/ml
[5] = system: A549; assay: Cytotoxicity against human A549 cells by MTT assay; assay type: functional, cell-based

| Compound | Activity [1] | MIC90 [2] [µM] | Activity [3] | Activity [4] | pIC50 [5] |
| --- | --- | --- | --- | --- | --- |
| COc1cc(O)c2c(=O)c(OC)c(-c3cccc(Cl)c3OC(=O)c3cccc(Br)c3)oc2c1OC | inactive | 1.8 | inactive | inactive |  |
| COc1cc(O)c2c(=O)c(OC)c(-c3cccc(Cl)c3OC(=O)c3cccc(C)c3)oc2c1OC | inactive |  | inactive | inactive |  |
| COc1cc(O)c2c(=O)c(OC)c(-c3ccccc3O)oc2c1OC | inactive |  | inactive | inactive |  |
| COc1cc(OCc2cccc(C)c2)c2c(=O)c(OC)c(-c3cccc(Cl)c3OCc3cccc(C)c3)oc2c1OC | inactive |  | inactive | inactive |  |
| NNC(=O)c1ccncc1 [ISONIAZID] |  | 0.3 | inactive | inactive |  |
| COc1cc(O)c2c(=O)c(OC)c(-c3cccc(Cl)c3OC(=O)/C=C/c3ccccc3Cl)oc2c1OC | inactive | 0.7 | inactive | inactive |  |
| COc1cc(C(=O)Oc2c(Cl)cccc2-c2oc3c(OC)c(OC)cc(OC(=O)c4cc(OC)c(OC)c(OC)c4)c3c(=O)c2OC)cc(OC)c1OC | inactive |  | inactive | inactive |  |
| COc1cc(OCc2ccc(C(C)(C)C)cc2)c2c(=O)c(OC)c(-c3cccc(Cl)c3OCc3ccc(C(C)(C)C)cc3)oc2c1OC | inactive |  | inactive | inactive |  |
| COc1cc(O)c2c(=O)c(OC)c(-c3cccc(Cl)c3OC(=O)c3cccc(Cl)c3)oc2c1OC | inactive | 1.9 | inactive | inactive |  |
| COc1ccc(C(=O)Oc2c(Cl)cccc2-c2oc3c(OC)c(OC)cc(OC(=O)c4ccc(OC)cc4)c3c(=O)c2OC)cc1 | inactive |  | inactive | inactive |  |
| COc1cc(O)c2c(=O)c(OC)c(-c3cccc(Cl)c3OCc3ccc(F)cc3)oc2c1OC | inactive |  | inactive | inactive |  |
| COc1ccc(C(=O)Oc2c(Cl)cccc2-c2oc3c(OC)c(OC)cc(O)c3c(=O)c2OC)cc1 | inactive | 2 | inactive | inactive |  |
| COc1cc(OC(=O)c2cccs2)c2c(=O)c(OC)c(-c3cccc(Cl)c3OC(=O)c3cccs3)oc2c1OC | inactive |  | inactive | inactive |  |
| COc1cc(O)c2c(=O)c(OC)c(-c3cccc(Cl)c3O)oc2c1OC | inactive | 2.6 | inactive | inactive |  |
| COc1c(Br)c(O)c2c(=O)c(OC)c(-c3cc(Br)cc(Cl)c3O)oc2c1OC | inactive |  | inactive | inactive |  |
| COc1cc(O)c2c(=O)c(OC)c(-c3cccc(Cl)c3OC(=O)c3cccc(N)c3)oc2c1OC | inactive | 2 | inactive | inactive |  |
| COc1cc(O)c2c(=O)c(OC)c(-c3cccc(Cl)c3OCCc3cccc(F)c3)oc2c1OC | inactive |  | inactive | inactive |  |
| COc1cc(OC(=O)c2ccccc2)c2c(=O)c(OC)c(-c3cccc(Cl)c3OC(=O)c3ccccc3)oc2c1OC | inactive | 1.7 | inactive | inactive |  |
| COc1cc(O)c2c(=O)c(OC)c(-c3cccc(Cl)c3OCc3cccc(C)c3)oc2c1OC | inactive |  | inactive | inactive |  |
| COc1cc(/C=C/C(=O)Oc2c(Cl)cccc2-c2oc3c(OC)c(OC)cc(O)c3c(=O)c2OC)cc(OC)c1OC | inactive | 1.7 | inactive | inactive |  |
| COc1cc(O)c2c(=O)c(OC)c(-c3cccc(Cl)c3OC(=O)/C=C/c3ccc(F)c(F)c3)oc2c1OC | inactive |  | inactive | inactive |  |
| COc1cc(OC(=O)c2cccc(F)c2)c2c(=O)c(OC)c(-c3cccc(Cl)c3OC(=O)c3cccc(F)c3)oc2c1OC | inactive | 1.6 | inactive | inactive |  |

| Compound | Activity [1] | MIC90 [2] [µM] | Activity [3] | Activity [4] | pIC50 [5] |
| --- | --- | --- | --- | --- | --- |
| COc1cc(OC(=O)/C=C/c2ccc(C(F)(F)F)cc2)c2c(=O)c(OC)c(-c3cccc(Cl)c3OC(=O)/C=C/c3ccc(C(F)(F)F)cc3)oc2c1OC | inactive |  | inactive | inactive |  |
| COc1ccc(/C=C/C(=O)Oc2c(Cl)cccc2-c2oc3c(OC)c(OC)cc(O)c3c(=O)c2OC)cc1 | inactive | 1.9 | inactive | inactive |  |
| COc1cc(O)c2c(=O)c(OC)c(-c3cccc(Br)c3O)oc2c1OC |  | 1.2 |  |  |  |
| COc1cc(OC(=O)c2cccc(N(C)C)c2)c2c(=O)c(OC)c(-c3cccc(Cl)c3OC(=O)c3cccc(N(C)C)c3)oc2c1OC | inactive |  | inactive | inactive |  |
| COc1cccc2c1C(=O)c1c(O)c3c(c(O)c1C2=O)C[C@@](O)(C(=O)CO)C[C@@H]3O[C@H]1C[C@H](N)[C@H](O)[C@H](C)O1 [DOXORUBICIN HYDROCHLORIDE] |  |  |  |  | 6.60 |
| COc1cc(O)c2c(=O)c(OC)c(-c3cccc(Cl)c3OCc3ccc(C(C)(C)C)cc3)oc2c1OC | inactive |  | inactive | inactive |  |
| COc1cc(O)c2c(=O)c(OC)c(-c3cccc(Cl)c3OC(=O)c3cccnc3)oc2c1OC | inactive | 2.1 | inactive | inactive |  |
| COc1cc(O)c2c(=O)c(OC)c(-c3cc(Br)cc(Cl)c3O)oc2c1OC | inactive |  | inactive | inactive |  |
| COc1cc(O)c2c(=O)c(OC)c(-c3cccc(Cl)c3OC(=O)/C=C/c3ccc(N(C)C)cc3)oc2c1OC | inactive |  | inactive | inactive |  |
| COc1cc(O)c2c(=O)c(OC)c(-c3cccc(Cl)c3OC(=O)/C=C/c3cccnc3)oc2c1OC | inactive | 2 | inactive | inactive |  |
| COc1cc(O)c2c(=O)c(OC)c(-c3cccc(Cl)c3OC(=O)/C=C/c3ccccc3)oc2c1OC | inactive | 2 | inactive | inactive |  |
| COc1cc(O)c2c(=O)c(OC)c(-c3cccc(Cl)c3OC(=O)/C=C/c3ccc(C(F)(F)F)cc3)oc2c1OC | inactive | 1.7 | inactive | inactive |  |
| COc1cc(OCc2cccc(F)c2)c2c(=O)c(OC)c(-c3cccc(Cl)c3OCc3cccc(F)c3)oc2c1OC | inactive |  | inactive | inactive |  |
| COc1cc(OC(=O)c2cccc(Cl)c2)c2c(=O)c(OC)c(-c3cccc(Cl)c3OC(=O)c3cccc(Cl)c3)oc2c1OC | inactive |  | inactive | inactive |  |
| COc1cc(O)c2c(=O)c(OC)c(-c3cccc(Cl)c3OC(=O)/C=C/c3ccsc3)oc2c1OC | inactive | 1.9 | inactive | inactive |  |
| COc1cc(O)c2c(=O)c(OC)c(-c3cccc(Cl)c3OC(=O)N(C)C)oc2c1OC | inactive |  | inactive | inactive |  |
| COc1cc(OCc2ccc(C(F)(F)F)cc2)c2c(=O)c(OC)c(-c3cccc(Cl)c3OCc3ccc(C(F)(F)F)cc3)oc2c1OC | inactive |  | inactive | inactive |  |
| COc1cc(O)c2c(=O)c(OC)c(-c3cccc(Cl)c3OC(=O)/C=C/c3cccc(Cl)c3)oc2c1OC | inactive | 0.9 | inactive | inactive |  |
| COc1cc(C(=O)Oc2c(Cl)cccc2-c2oc3c(OC)c(OC)cc(O)c3c(=O)c2OC)cc(OC)c1OC | inactive | 1.8 | inactive | inactive |  |
| COc1cc(O)c2c(=O)c(OC)c(-c3cccc(Cl)c3OC(=O)c3ccccc3)oc2c1OC | inactive | 1 | inactive | inactive |  |
| COc1cc(O)c2c(=O)c(OC)c(-c3cccc(Cl)c3OC(=O)/C=C/c3ccc(C)cc3)oc2c1OC | inactive | 1.9 | inactive | inactive |  |
